{"source": "patent US7728020B2", "about": "“Amino acid derivatives” (Novartis AG, priority 2004, dated 2010)", "key": {"[1]": {"system": "peripheral blood lymphocytes", "experiment": "Blood lymphocyte depletion", "format": "in vivo", "details": "rats, 3.2 mg/kg p.o. after 6 h", "description": "B. In vivo: Blood Lymphocyte Depletion\nA compound of formula I or the vehicle is administered orally by gavage to rats. Tail blood for hematological monitoring is obtained on day −1 to give the baseline individual values, and at 2, 6, 24, 48 and 72 hours after application. In this assay, the compounds of formula I deplete peripheral blood lymphocytes when administered at a dose of 0.03 to 3 mg/kg. For example, following results are obtained: depletion of peripheral blood lymphocytes by more than 50%."}, "[2]": {"target": "T1, human S1P receptor EDG-8 (S1P5) (Homo sapiens, UniProt Q9H228)", "T1 construct": "expressed in transfected cells", "T1 sequence (Q9H228 whole entry)": "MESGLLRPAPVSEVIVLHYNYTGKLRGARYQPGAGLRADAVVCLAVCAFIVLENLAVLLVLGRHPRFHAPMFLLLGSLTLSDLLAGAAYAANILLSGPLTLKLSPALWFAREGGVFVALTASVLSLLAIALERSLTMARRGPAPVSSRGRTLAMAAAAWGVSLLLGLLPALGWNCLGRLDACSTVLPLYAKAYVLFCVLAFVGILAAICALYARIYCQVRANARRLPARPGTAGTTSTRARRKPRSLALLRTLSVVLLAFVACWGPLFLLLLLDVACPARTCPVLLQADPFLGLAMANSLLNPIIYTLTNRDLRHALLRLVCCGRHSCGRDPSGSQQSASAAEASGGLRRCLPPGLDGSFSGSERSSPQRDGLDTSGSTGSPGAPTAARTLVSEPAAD", "experiment": "GTP[γ-35S] binding SPA, S1P receptor profiling (S1P5)", "format": "biochemical", "set-up": "key to S1P5 mode of action: Agon = agonist", "details": "GTP[γ-35S] SPA", "description": "(§1) Sphingosine-1-phosphate (SIP) Receptor Profiling\n(§2) Agonist activities of compounds are tested on the human S1P receptors EDG-1 (S1P1), EDG-3 (S1P3), EDG-5 (S1P2), EDG-6 (S1P4) and EDG-8 (S1P5). […] The assay technology used is SPA (scintillation proximity based assay). Briefly, DMSO dissolved compounds are serially diluted and added to SPA-based (Amersham-Pharmacia) immobilised S1P receptor expressing membrane protein (10-20 μg/well) in the presence of 50 mM Hepes, 100 mM NaCl, 10 mM MgCl2, 10 μM GDP, 0.1% fat free BSA and 0.2 nM GTP [γ^35S] (1200 Ci/mmol). After incubation in 96 well microtiterplates at RT for 120 min, unbound GTP [γ^35S] is separated by a centrifugation step. Luminescence of SPA beads triggered by membrane bound GTP [γ^35S] is quantified with a TOPcount plate reader (Packard). EC50s are calculated using standard curve fitting software. In this assay, the compounds of formula I have a binding affinity to S1P1 receptor <50 nM."}, "[3]": {"target": "T2, human S1P receptor EDG-3 (S1P3) (Homo sapiens, UniProt Q99500)", "T2 construct": "expressed in transfected cells", "T2 sequence (Q99500 whole entry)": "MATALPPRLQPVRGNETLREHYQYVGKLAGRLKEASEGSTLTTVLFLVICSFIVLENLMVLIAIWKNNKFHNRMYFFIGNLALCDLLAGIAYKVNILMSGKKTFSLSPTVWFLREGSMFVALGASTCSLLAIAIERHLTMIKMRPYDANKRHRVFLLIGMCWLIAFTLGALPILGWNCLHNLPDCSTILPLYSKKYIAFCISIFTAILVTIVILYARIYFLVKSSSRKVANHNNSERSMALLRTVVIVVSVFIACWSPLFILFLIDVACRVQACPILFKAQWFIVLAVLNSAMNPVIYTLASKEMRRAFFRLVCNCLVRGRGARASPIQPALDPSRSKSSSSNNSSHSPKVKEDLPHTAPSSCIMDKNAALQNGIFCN", "experiment": "GTP[γ-35S] binding SPA, S1P receptor profiling (S1P3)", "format": "biochemical", "set-up": "key to S1P3 mode of action: Agon = agonist", "details": "GTP[γ-35S] SPA", "description": "as §1, §2"}, "[4]": {"target": "T3, human S1P receptor EDG-1 (S1P1) (Homo sapiens, UniProt P21453)", "T3 construct": "expressed in transfected cells", "T3 sequence (P21453 whole entry)": "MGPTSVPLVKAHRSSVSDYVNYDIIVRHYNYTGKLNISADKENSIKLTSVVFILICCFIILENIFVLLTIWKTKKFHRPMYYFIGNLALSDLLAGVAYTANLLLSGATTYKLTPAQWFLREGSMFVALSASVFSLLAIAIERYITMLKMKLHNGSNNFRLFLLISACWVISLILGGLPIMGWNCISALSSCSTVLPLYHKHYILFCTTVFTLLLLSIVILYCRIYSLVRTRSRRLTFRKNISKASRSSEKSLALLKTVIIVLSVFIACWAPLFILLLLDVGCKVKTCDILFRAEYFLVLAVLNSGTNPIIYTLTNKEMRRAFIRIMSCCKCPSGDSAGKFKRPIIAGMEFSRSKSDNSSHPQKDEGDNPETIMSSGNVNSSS", "experiment": "GTP[γ-35S] binding SPA, S1P receptor profiling (S1P1)", "format": "biochemical", "set-up": "key to S1P1 mode of action: Agon = agonist", "details": "GTP[γ-35S] SPA", "description": "as §1, §2"}, "[5]": {"target": "T4, human S1P receptor EDG-6 (S1P4) (Homo sapiens, UniProt O95977)", "T4 construct": "expressed in transfected cells", "T4 sequence (O95977 1-384)": "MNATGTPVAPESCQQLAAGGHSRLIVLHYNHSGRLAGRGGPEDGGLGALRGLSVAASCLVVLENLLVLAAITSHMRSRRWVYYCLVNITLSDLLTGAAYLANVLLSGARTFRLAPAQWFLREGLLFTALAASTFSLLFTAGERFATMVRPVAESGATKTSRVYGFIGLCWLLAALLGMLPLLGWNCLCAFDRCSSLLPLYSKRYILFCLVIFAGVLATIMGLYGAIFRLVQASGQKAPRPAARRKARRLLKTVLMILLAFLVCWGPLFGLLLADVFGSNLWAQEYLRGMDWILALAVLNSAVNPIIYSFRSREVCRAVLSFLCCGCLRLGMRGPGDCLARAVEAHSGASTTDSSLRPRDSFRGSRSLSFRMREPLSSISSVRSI", "experiment": "GTP[γ-35S] binding SPA, S1P receptor profiling (S1P4)", "format": "biochemical", "set-up": "key to S1P4 mode of action: Agon = agonist", "details": "GTP[γ-35S] SPA", "description": "as §1, §2"}, "[6]": {"details": "membranes of transfected CHO or RH7777 cells"}}}
{"compound": "CCCCCCCOc1ccc(CC[C@@](C)(N)CC(=O)O)cc1", "note": "[Example 1, (R)-3-Amino-5-(4-heptyloxy-phenyl)-3-methyl-pentanoic acid]", "values": [{"measurement": "depletion of peripheral blood lymphocytes", "setting": "[1]", "value": "more than 50%"}, {"measurement": "S1P5 mode of action", "setting": "[2]", "value": "Agon"}, {"measurement": "EC50", "setting": "[2]; [6]", "value": 203, "unit": "nM"}, {"measurement": "S1P3 mode of action", "setting": "[3]", "value": "Agon"}, {"measurement": "EC50", "setting": "[3]; [6]", "value": 209, "unit": "nM"}, {"measurement": "S1P1 mode of action", "setting": "[4]", "value": "Agon"}, {"measurement": "EC50", "setting": "[4]; [6]", "value": 11, "unit": "nM"}, {"measurement": "S1P4 mode of action", "setting": "[5]", "value": "Agon"}, {"measurement": "EC50", "setting": "[5]; [6]", "value": 117, "unit": "nM"}]}
